Measurements reported in publication PMC4389562, “Antigiardial activity of novel triazolyl-quinolone-based chalcone derivatives: when oxygen makes the difference” (Frontiers in Microbiology, 2015).
Read-outs that look alike come from different tables or passages of the source.

Columns and labels:
Caco-2 cells = assay: Counter-screen on Caco-2 cells, ATP level by luminescence (ATPlite), 48 h incubation; type: cell-based, human; settings: atmospheric O2, 5% CO2, 48 h, 37 °C
Method: Trophozoites of G. intestinalis strain WB clone C6 (ATCC No. 50803TM) were cultured axenically at 37^∘C in 25-cm^2 flasks containing Diamond’s TYI-S-33 medium supplemented with 10% bovine calf serum, 1 mg/mL bovine bile, 0.1 g/L streptomycin and 100 U/mL penicillin. […] Human epithelial colorectal adenocarcinoma (Caco-2) cells were grown in 25-cm^2 flasks in EMEM supplemented with 1% (v/v) non-essential amino acids, 2 mM glutamine, 5% (v/v) fetal bovine serum, 0.1 g/L streptomycin, and 100 U/mL penicillin.
Cells were detached with 0.5% trypsin-EDTA and seeded in sterile 96-well white clear-bottom plates at the same density of Giardia trophozoites and at increasing concentration of the compound to be tested, as described above. The assays were carried out exactly as reported for the Giardia trophozoites, except that the plates were incubated (still at 37^∘C) at atmospheric O2 level, 5% CO2, and 95% humidity. Each drug concentration was tested in at least seven replicates. MTZ was used as an internal […] control in the assay. Following 48 h incubation with each compound, according to the manufacturer instructions, 100 μL of the ATPlite^TM luminescence assay system (Perkin Elmer) was added to each well for one-step lysis and ATP level detection by luminescence.
Luminometric data were calibrated using ATP standard curves and normalized to the ATP level measured in control DMSO-treated cells (taken as 100%). The measured ATP level percentage was plotted as a function of the compound concentration and the half-maximal inhibitory concentration (IC50) was obtained by fitting the resulting titration profile to the Hill equation ([Goutelle et al., 2008]). The selectivity index (SI) of the compounds was then calculated as the ratio between the IC50 value measured on human cells over the value determined on Giardia trophozoites (SI = IC50,Caco-2/IC50,Giardia).
Selectivity of the newly synthesized compounds toward Giardia was assessed by running a counter-screen on human epithelial Caco-2 cells. […] This allowed us to calculate the compounds SI, defined as the ratio between the IC50 value measured on human cells over the value determined on Giardia trophozoites.

[1] = system: Giardia intestinalis trophozoites; assay: Drug susceptibility of Giardia trophozoites, ATP level by luminescence (BacTiter-Glo), 48 h incubation, anaerobic or microaerobic; type: cell-based, Giardia intestinalis strain WB clone C6; settings: for IC50: 48 h, 37 °C, ATP level; for selectivity ratio at 48 h: human (Caco-2 cells) versus Giardia intestinalis, Caco-2, SI = IC50,Caco-2/IC50,Giardia
Method: Trophozoites of G. intestinalis strain WB clone C6 (ATCC No. 50803TM) were cultured axenically at 37^∘C in 25-cm^2 flasks containing Diamond's TYI-S-33 medium supplemented with 10% bovine calf serum, 1 mg/mL bovine bile, 0.1 g/L streptomycin and 100 U/mL penicillin. Typically, 50 ml medium was inoculated with 25 × 10^6 cells and after 2 days cells were harvested by chilling the flasks on ice for 30 min for drug susceptibility assays. […] The assays were performed following the procedure described in [Bahadur et al. (2014)], using sterile 96-well white clear-bottom plates. […] Each drug concentration was tested in at least six replicates. MTZ was used as an internal positive control in the assay. The microtiter plates were then incubated at 37^∘C under anaerobic or microaerobic conditions, ensured by the Anaerocult® A or the Anaerocult® […] (Merck), respectively. […] Following 48 h incubation with the compound to be tested, 100 μL of the BacTiter-Glo^TM Microbial Cell Viability Assay System reagent (Promega) was added to each well for one-step lysis and ATP level detection. Plates were then incubated at room temperature for 15 min and ATP levels finally detected by luminescence on a plate reader (Wallac Victor3 1420 Multilabel Counter, PerkinElmer). Luminometric data were calibrated using ATP standard curves and normalized to the ATP level measured in control DMSO-treated cells (taken as 100%). The measured ATP level percentage was plotted as a function of the compound concentration and the half-maximal inhibitory concentration (IC50) was obtained by fitting the resulting titration profile to the Hill equation ([Goutelle et al., 2008]). The selectivity index (SI) of the compounds was then calculated as the ratio between the IC50 value measured on human cells over the value determined on Giardia trophozoites (SI = IC50,Caco-2/IC50,Giardia). The antigiardial activity of the novel compounds 23-67 was tested under both anaerobic and microaerobic conditions. According to ([Dunn et al., 2010]; [Bahadur et al., 2014]), susceptibility of Giardia trophozoites to increasing concentrations of each compound was assessed based on ATP level determination by luminescence. Dose-response curves for each compound were obtained after 48 h-incubation and compared to the data collected under identical conditions with MTZ, the drug of choice for treatment of giardiasis. […] Typical dose-response curves are shown in Figure 2, whereas the IC50 values measured for the synthetic compounds and MTZ under anaerobic and microaerobic conditions are reported in Table 1. […] Under anaerobic conditions, 18 out of the 45 synthetic compounds were as effective as MTZ or more under identical conditions (see Table 1).

Giardia = system: Giardia; parameters: method as in Cedillo-Rivera and Munoz, 1992; settings: anaerobic conditions; ref Cedillo-Rivera and Munoz, 1992; read-out: IC50 against Giardia under anaerobic conditions; cited from earlier work
[2] = Giardia duodenalis, anaerobic conditions (Anaerocult A), read-out: Giardia (anaerobiosis) IC50
[3] = Giardia duodenalis, microaerobic conditions (~5% O2, Anaerocult C), read-out: Giardia (microaerobiosis) IC50
[4] = Giardia under anaerobiosis, read-out: Selectivity (IC50,Caco/IC50,Giardia) Anaerobiosis
[5] = Giardia under microaerobiosis, read-out: Selectivity (IC50,Caco/IC50,Giardia) Microaerobiosis

Row | melting point | Compound | IC50 (Caco-2 cells; Homo sapiens, Caco-2, 48 h) | IC50 (Caco-2 cells) | IC50 [1, 2] | IC50 [1, 3] | IC50 ([1]; anaerobic conditions (Anaerocult A), read-out: Giardia (anaerobiosis) IC50) | selectivity ratio at 48 h [1, 4] | selectivity ratio at 48 h [1, 5] | IC50 (Giardia)
1 | 210 to 212 °C | COc1ccccc1C(=O)/C=C/c1cc2ccccc2n(Cc2cn(-c3ccccc3)nn2)c1=O [Compound 65] | ≥ 40000 nM | ≥ 50000 nM | 2200 to 3200 nM | 400 nM | 1600 nM |  |  | 
2 | 224 to 226 °C | COc1cccc(C(=O)/C=C/c2cc3ccccc3n(Cc3cn(-c4ccccc4)nn3)c2=O)c1 [Compound 66] | ≥ 40000 nM | ≥ 50000 nM | 3200 nM | 1600 nM |  | > 15 | > 30 | 
3 | 215 to 217 °C | COc1ccc(C(=O)/C=C/c2cc3ccccc3n(Cc3cn(-c4ccccc4)nn3)c2=O)cc1 [Compound 67] | ≥ 100000 nM |  | 5900 nM | 800 nM |  | ≥ 16 | ≥ 125 | 
4 |  | CCCSc1ccc2nc(NC(=O)OC)[nH]c2c1 [albendazole] |  |  |  |  |  |  |  | < 100 nM
